Reference: patent US20060045953A1 (priority 2004, published 2006)

What follows are compounds tested against T1, hT1R2/hT1R3 sweet receptor (Homo sapiens, UniProt Q7RTX0+Q8TE23) (assay: In vitro hT1R2/hT1R3 sweet taste receptor activation assay (FLIPR, dose response)). Conditions: Table E, Sweet Enhancer Amides; read-out: Sweet EC50.
T1 construct: expressed in transfected cells; host or cells: HEK293 derivative stably expressing Gα15, clone S-9
T1 sequence (Q8TE23 20-839): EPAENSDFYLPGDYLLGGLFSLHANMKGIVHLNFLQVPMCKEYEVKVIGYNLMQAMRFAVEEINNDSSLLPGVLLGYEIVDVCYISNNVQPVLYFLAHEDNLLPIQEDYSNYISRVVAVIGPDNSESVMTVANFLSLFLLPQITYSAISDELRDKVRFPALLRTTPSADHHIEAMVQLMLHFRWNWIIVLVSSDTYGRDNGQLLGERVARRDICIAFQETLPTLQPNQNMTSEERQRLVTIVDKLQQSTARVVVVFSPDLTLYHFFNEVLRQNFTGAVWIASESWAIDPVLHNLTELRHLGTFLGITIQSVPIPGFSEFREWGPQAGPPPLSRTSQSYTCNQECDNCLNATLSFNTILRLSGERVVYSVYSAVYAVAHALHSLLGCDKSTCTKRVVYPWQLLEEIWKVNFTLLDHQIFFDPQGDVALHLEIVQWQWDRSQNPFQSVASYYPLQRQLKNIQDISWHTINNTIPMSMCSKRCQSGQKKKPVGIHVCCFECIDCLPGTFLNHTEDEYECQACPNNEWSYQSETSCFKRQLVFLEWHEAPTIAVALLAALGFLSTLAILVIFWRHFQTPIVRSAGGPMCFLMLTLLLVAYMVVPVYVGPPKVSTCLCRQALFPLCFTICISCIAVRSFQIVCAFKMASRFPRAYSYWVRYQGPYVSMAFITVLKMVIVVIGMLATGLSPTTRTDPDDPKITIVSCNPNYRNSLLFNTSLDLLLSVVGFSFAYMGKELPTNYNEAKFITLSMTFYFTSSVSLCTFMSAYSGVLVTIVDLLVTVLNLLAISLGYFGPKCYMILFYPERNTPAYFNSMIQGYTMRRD
T1 sequence (Q7RTX0 21-852): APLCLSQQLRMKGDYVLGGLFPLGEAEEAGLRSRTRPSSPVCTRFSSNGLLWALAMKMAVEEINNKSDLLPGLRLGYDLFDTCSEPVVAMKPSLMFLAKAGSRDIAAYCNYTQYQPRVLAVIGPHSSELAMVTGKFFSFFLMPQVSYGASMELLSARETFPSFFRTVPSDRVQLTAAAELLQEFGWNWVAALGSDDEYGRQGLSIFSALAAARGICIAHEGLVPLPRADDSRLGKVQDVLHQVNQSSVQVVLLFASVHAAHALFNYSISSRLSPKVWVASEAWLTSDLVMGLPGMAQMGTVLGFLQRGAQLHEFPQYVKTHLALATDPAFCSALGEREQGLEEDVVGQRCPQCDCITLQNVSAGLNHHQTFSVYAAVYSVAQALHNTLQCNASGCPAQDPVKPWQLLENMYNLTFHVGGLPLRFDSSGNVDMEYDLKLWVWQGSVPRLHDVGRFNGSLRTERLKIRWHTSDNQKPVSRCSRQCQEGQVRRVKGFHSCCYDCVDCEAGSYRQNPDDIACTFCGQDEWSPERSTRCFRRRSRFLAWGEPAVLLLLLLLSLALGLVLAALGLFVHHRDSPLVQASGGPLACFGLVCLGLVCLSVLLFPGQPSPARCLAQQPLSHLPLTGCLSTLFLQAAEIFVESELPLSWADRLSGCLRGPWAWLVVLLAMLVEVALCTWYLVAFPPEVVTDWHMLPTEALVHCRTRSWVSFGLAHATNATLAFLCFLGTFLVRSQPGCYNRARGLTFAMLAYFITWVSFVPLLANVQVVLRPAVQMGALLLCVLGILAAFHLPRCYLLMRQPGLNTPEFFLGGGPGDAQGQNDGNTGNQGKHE
Assay type: cell-based
In short: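 Dose-response at 10 concentrations (60 nM–30 µM, duplicates) measured as Fluo-3AM calcium fluorescence on FLIPR in hT1R2/hT1R3 S-9 cells, in D-PBS at room temperature. Responses scaled to 400 mM D-fructose. EC50s from regression with all curve parameters floating.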

| Structure (SMILES) | EC50 |
| --- | --- |
| Cc1cc([N+](=O)[O-])ccc1NC(=O)N1Cc2ccccc2C1 [Example E100, N-(2-methyl-4-nitrophenyl)isoindoline-2-carboxamide] | 1300 nM |
| O=C(Nc1ccc(F)cc1F)N1Cc2ccccc2C1 [Example E101, N-(2,4-difluorophenyl)isoindoline-2-carboxamide] | 1370 nM |
| Cc1c(NC(=O)N2Cc3ccccc3C2)cccc1[N+](=O)[O-] [Example E102, N-(2-methyl-3-nitrophenyl)isoindoline-2-carboxamide] | 2010 nM |
| O=C(Nc1ccc(F)c(F)c1F)N1Cc2ccccc2C1 [Example E103, N-(2,3,4-trifluorophenyl)isoindoline-2-carboxamide] | 2580 nM |
| Cc1ccc(NC(=O)N2Cc3ccccc3C2)cc1 [Example E104, N-p-tolylisoindoline-2-carboxamide] | 3050 nM |
| O=C(Nc1ccc(Cl)cc1)N1Cc2ccccc2C1 [Example E105, N-(4-chlorophenyl)isoindoline-2-carboxamide] | 3400 nM |
| O=C(Nc1ccccc1Cl)N1Cc2ccccc2C1 [Example E106, N-(2-chlorophenyl)isoindoline-2-carboxamide] | 3850 nM |
| O=C(Nc1ccc(Cl)cc1Cl)N1Cc2ccccc2C1 [Example E107, N-(2,4-dichlorophenyl)isoindoline-2-carboxamide] | 4150 nM |
| COc1ccc(NC(=O)N2Cc3ccccc3C2)cc1 [Example E108, N-(4-methoxyphenyl)isomdoline-2-carboxamide] | 4990 nM |
| O=C(Nc1ccc(Cl)cc1Cl)N1CCc2ccccc2C1 [Example E109, N-(2,4-dichlorophenyl)-3,4-dihydroisogumoline-2(1H)-carboxamide] | 2340 nM |
| N#Cc1ccccc1NC(=O)N1CCc2ccccc2C1 [Example E110, N-(2-cyanophenyl)-3,4-dihydroisoquinoline-2(1H)-carboxamide] | 2500 nM |
| Cc1ccc(NC(=O)N2CCc3ccccc3C2)cc1 [Example E111, N-p-tolyl-3,4-dihydroisoquinoline-2(1H)-carboxamide] | 4270 nM |
| Cc1c(Cl)cccc1NC(=O)N1CCc2ccccc2C1 [Example E112, N-(3-chloro-2-methylphenyl)-3,4-dihydroisoguinoline-2(1H)-carboxamide] | 4330 nM |
| COc1ccc(NC(=O)N2CCc3ccccc3C2)c(OC)c1 [Example E113, N-(2,4-dimethoxyphenyl)-3,4-dihydroisoquinoline-2(1H)-carboxamide] | 4440 nM |
| O=C(Nc1cccc2c1CCCC2)N1CCc2ccccc21 [Example E119, N-(5,6,7,8-tetrahydronaphthalen-1-yl)indoline 1-carboxamide] | 1060 nM |
| C/C=C/c1c(F)c(F)c(C(=O)N[C@@H](C)C(C)C)c(F)c1F [Example E129, (S,E)-2,3,5,6-tetrafluoro-N-(3-methylbutan-2-yl)-4-(prop-1-enyl)benzamide] | 410 nM |
| C=CCc1c(F)c(F)c(C(=O)N[C@@H](C)C(C)(C)C)c(F)c1F [Example E130, (S)-4-allyl-N-(3,3-dimethylbutan-2-yl)-2,3,5,6-tetrafluorobenzamide] | 430 nM |
| CC(C)[C@H](C)NC(=O)c1c(F)c(F)c(-c2ccccc2)c(F)c1F [Example E131, (S)-2,3,5,6-tetrafluoro-N-(3-methylbutan-2-yl)-4-phenyl benzamide] | 440 nM |
| CCOc1c(F)c(F)c(C(=O)N[C@@H](C)C(C)C)c(F)c1F [Example E133, (S)-4-ethoxy-2,3,5,6-tetrafluoro-N-(3-methylbutan-2-yl)benzamide] | 600 nM |

More lines, now with the values ahead:

| EC50 | Structure (SMILES) |
| --- | --- |
| 190 nM | Cc1cc(Cl)ccc1NC(=O)N1Cc2cccc(C)c2C1 [Example E114, N-(4-chloro-2-methylphenyl)-4-methylisoindoline-2-carboxamide] |
| 250 nM | Cc1ccc(NC(=O)N2Cc3cccc(C)c3C2)c(C)c1 [Example E115, N-(2,4-dimethylphenyl)-4-methylisoindoline-2-carboxamide] |
| 710 nM | COc1ccc(NC(=O)N2Cc3cccc(C)c3C2)c(C)c1 [Example E116, N-(4-methoxy-2-methylphenyl)-4-methylisomdoline-2-carboxamide] |
| 90 nM | COc1cc(F)c(NC(=O)N2Cc3cccc(C)c3C2)c(OC)c1 [Example E117, N-(2-fluoro-4,6-dimethoxyphenyl)-4-methylisoindoline-2-carboxamide] |
| 100 nM | COc1ccc(NC(=O)N2Cc3cccc(C)c3C2)c(F)c1 [Example E118, N-(2-fluoro-4-methoxyphenyl)-4-methylisoindoline-2-carboxamide] |
| 2380 nM | Cc1cccc(NC(=O)N2CCc3ccccc32)c1C [Example E120, N-(2,3-dimethylphenyl)indoline-1-carboxamide] |
| 1610 nM | COc1cccc(C(=O)NC2CCCc3c(OC)cccc32)c1O (stereo not drawn) [Example E121, 2-hydroxy-3-methoxy-N-(5-methoxy-1,2,3,4-tetrahydronaphthalen-1-yl)benzamide] |
| 1950 nM | COc1cccc2c1CCCC2NC(=O)c1cccc(C)c1O (stereo not drawn) [Example E122, 2-hydroxy-N-(5-methoxy-1,2,3,4-tetrahydronaphthalen-1-yl)-3-methylbenzamide] |
| 2560 nM | COc1cccc2c1CCCC2NC(=O)c1cccc(-c2ccccc2)c1O (stereo not drawn) [Example E123, 2-hydroxy-N-(5-methoxy-1,2,3,4-tetrahydronaphthalen-1-yl)-3-phenylbenzamide] |
| 2640 nM | COc1cccc2c1CCCC2NC(=O)c1cccc(C(C)C)c1O (stereo not drawn) [Example E124] |
| 620 nM | CCCc1nocc1C(=O)N[C@@H]1CCCc2c(C)cc(C)cc21 [Example E125, (R)-N-(5,7-dimethyl-1,2,3,4-tetrahydronaphthalen-1-yl)-3-propylisoxazole-4-carboxamide] |
| 890 nM | Cc1cccc2c1CCC[C@H]2NC(=O)c1cccc(Cl)c1O [Example E126, (R)-3-chloro-2-hydroxy-N-(5-methyl-1,2,3,4-tetrahydronaphthalen-1-yl)benzamide] |
| 1240 nM | CCc1nocc1C(=O)N[C@@H]1CCCc2c(C)cc(C)cc21 [Example E128, (R)-N-(5,7-dimethyl-1,2,3,4-tetrahydronaphthalen-1-yl)-3-ethylisoxazole-4-carboxamide] |
| 550 nM | C=CCc1c(F)c(F)c(C(=O)NC2CCCCC2)c(F)c1F [Example E132, 4-allyl-N-cyclohexyl-2,3,5,6-tetrafluorobenzamide] |
